Data as given in ChEMBL document CHEMBL4385620, “Inhibition of polypeptide N-acetyl-α-galactosaminyltransferases is an underlying mechanism of dietary polyphenols preventing colorectal tumorigenesis” (Bioorg Med Chem, 2019).
Activity calls are given as the source filed them. No cut-off for these calls is given here.

Experiments:
[1] = target: T1, Polypeptide N-acetylgalactosaminyltransferase 10 (Homo sapiens, UniProt Q86SR1); experiment: Inhibition of catalytic activity of ppGalNAcT10 (unknown origin) using EA2 peptide as substrate incubated for 30 mins by HPLC-based enzyme assay
T1 sequence (Q86SR1 whole entry): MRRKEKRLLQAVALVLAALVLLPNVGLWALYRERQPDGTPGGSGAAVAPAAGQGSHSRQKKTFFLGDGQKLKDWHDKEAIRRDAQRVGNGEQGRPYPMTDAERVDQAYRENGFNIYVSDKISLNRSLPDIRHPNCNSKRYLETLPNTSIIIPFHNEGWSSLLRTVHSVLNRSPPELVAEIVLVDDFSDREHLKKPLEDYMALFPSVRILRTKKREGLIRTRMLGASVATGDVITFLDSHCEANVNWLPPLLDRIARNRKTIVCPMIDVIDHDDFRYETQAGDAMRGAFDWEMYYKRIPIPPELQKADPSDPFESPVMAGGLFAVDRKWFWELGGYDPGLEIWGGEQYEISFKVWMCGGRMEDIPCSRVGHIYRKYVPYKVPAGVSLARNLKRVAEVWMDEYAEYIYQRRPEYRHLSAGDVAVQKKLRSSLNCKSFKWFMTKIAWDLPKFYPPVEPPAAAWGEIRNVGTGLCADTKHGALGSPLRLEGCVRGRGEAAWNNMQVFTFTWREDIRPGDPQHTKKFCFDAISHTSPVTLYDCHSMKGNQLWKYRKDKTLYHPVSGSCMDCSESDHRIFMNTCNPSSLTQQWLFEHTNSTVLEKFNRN

HCT-116 = experiment: Cytotoxicity against human HCT116 cells at 40 uM incubated for 48 hrs by CCK-8 assay; type: cell-based; conditions: hct-116, 48 h
[2] = target: T2, Polypeptide N-acetylgalactosaminyltransferase 13 (Homo sapiens, UniProt Q8IUC8); experiment: Inhibition of catalytic activity of ppGalNAcT13 (unknown origin) using EA2 peptide as substrate incubated for 30 mins by HPLC-based enzyme assay
T2 sequence (Q8IUC8 whole entry): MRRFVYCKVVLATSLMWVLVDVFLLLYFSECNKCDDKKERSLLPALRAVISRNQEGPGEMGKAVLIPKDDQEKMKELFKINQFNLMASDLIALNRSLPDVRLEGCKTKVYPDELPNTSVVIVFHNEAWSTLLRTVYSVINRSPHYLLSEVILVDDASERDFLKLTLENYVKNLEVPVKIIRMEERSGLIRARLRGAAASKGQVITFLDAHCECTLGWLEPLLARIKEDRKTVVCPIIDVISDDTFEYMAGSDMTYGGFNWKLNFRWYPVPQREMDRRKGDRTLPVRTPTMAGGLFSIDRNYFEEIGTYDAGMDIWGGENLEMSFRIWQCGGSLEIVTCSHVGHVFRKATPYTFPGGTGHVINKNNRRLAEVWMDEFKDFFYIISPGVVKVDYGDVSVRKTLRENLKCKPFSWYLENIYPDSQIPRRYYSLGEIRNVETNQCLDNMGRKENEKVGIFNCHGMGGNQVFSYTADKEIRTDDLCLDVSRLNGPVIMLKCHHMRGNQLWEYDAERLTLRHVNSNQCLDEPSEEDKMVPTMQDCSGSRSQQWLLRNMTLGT

SW480 = experiment: Antimigratory activity in human SW480 cells at 40 uM incubated for 48 hrs by crystal violet staining based method; type: functional, cell-based
HT-29 [3] = experiment: Effect on ppGalNAcT7 expression level in human HT-29 cells at 40 uM incubated for 48 hrs by Q-PCR analysis; type: ADME, cell-based; conditions: ht-29, 48 h
[4] = target: T3, Polypeptide N-acetylgalactosaminyltransferase 1 (Homo sapiens, UniProt Q10472); experiment: Inhibition of catalytic activity of ppGalNAcT1 (unknown origin) using EA2 peptide as substrate incubated for 30 mins by HPLC-based enzyme assay
T3 sequence (Q10472 whole entry): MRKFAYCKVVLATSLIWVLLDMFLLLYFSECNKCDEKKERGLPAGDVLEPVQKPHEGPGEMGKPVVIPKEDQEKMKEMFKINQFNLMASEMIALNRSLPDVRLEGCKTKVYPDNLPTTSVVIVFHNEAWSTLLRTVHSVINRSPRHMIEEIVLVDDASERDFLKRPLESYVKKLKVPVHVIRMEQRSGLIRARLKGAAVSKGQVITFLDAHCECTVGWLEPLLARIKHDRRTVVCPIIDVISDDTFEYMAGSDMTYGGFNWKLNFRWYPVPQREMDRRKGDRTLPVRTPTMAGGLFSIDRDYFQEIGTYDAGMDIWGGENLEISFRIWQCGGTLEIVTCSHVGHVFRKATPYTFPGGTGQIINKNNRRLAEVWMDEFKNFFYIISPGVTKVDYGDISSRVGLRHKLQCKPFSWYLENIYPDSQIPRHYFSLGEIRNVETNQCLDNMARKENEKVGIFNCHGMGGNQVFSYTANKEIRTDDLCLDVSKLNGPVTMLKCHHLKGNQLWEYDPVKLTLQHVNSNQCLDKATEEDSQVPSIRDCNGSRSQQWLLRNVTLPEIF

[5] = target: Polypeptide N-acetylgalactosaminyltransferase 2 (Homo sapiens, UniProt Q10471); experiment: Inhibition of ppGalNAcT2 in human HT-29 cells assessed as reduction in O-GalNAc glycans by measuring PNA lectin signal on cell surface at 40 uM incubated for 48 hrs by DAPI staining based immunofluorescence method
HT-29 [6] = experiment: Antimigratory activity in human HT-29 cells at 40 uM incubated for 48 hrs by crystal violet staining based method; type: functional, cell-based

Sequence of Polypeptide N-acetylgalactosaminyltransferase 2 (Q10471 whole entry): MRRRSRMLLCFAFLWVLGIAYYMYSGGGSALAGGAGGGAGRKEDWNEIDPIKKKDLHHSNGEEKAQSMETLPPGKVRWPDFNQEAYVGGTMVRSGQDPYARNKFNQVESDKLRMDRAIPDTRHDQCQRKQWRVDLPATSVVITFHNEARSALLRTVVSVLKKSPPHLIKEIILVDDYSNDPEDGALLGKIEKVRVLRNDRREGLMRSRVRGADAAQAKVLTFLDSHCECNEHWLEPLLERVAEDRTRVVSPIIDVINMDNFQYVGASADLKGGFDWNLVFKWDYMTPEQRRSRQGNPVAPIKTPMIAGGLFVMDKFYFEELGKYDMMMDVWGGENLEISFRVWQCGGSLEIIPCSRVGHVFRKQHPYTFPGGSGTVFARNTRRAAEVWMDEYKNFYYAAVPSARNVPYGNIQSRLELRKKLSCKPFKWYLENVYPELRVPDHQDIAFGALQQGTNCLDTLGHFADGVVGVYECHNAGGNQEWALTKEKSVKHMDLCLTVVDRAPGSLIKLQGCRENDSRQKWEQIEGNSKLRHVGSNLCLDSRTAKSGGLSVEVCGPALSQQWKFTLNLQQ

IC50 [1]: 330 nM | IC50 [2]: 13800 nM | IC50 [4]: 2460 nM | inhibition [5]: Active
Compound: O=c1oc2c(O)c(O)ccc2c2cc(O)c(O)cc12
Activity (HCT-116): Non-Toxic | Activity (SW480): Active | Activity (HT-29 [3]): Non-Toxic | Activity (HT-29 [6]): Active
